Data taken from patent US11981675B1, “Pyrrolo[3,2-C]quinoline-2,3-dione compounds as CK2 inhibitors” (KING FAISAL UNIVERSITY, priority 2023, dated 2024).

Tests used:
[1] = test system: MCF7 (breast); experiment: In vitro cytotoxic activity assay (MTT), MCF7; assay type: cell-based; details: Homo sapiens; MCF7 (breast) cells, exposed for 96 hours; read-out: Cytotoxicity activity IC50 (50% inhibition of cell proliferation)
Method: (§1) Compounds 1-16 were screened for their in vitro cytotoxic activity utilizing a 3-(4,5-dimethyl-thiazol-2-yl)-2,5-diphenyltetrazolium bromide (MTT) assay against selected cancer human cell lines consisting of PC3 (prostate), HCT116 (colon), A375 (melanoma), H1299 (lung), MIAPaCa-2 (pancreas), HL60 (leukemia), MCF7 (breast), MDA-MB-231 (breast) (T. Mosmann, J. Immunol. Meth., 1983, 65, 55-63). The cells were cultured at 37° C. in RMPI1640 medium supplemented with 10% fetal bovine serum, 50 IU/mL penicillin, and 50 μg/mL streptomycin in a 5% CO2 incubator. All cells were sub-cultured 3 times/week by trypsinisation. Viable cells were seeded and allowed to adhere for 12 h before a test drug was added in 96-well plates at an initial density of 1.0×10^5 cells/mL. Tumor cell lines were separately exposed to various concentrations of the tested compounds followed by incubation at a temperature of 37° C. during 96 hours inside a medium of fresh RMPI 1640. Cells were subsequently incubated at 37° C. using MTT at 0.5 mg/mL during 4 hours. After removal of supernatant, formazan crystals were dissolved in isopropanol and the optical density was measured at 570 nm. CX-4945 was used as a positive control.

[2] = test system: PC3 (prostate); experiment: In vitro cytotoxic activity assay (MTT), PC3; assay type: cell-based; details: Homo sapiens, Prostate cell; PC3 (prostate) cells, exposed for 96 hours; read-out: Cytotoxicity activity IC50 (50% inhibition of cell proliferation)
Method: as §1

[3] = test system: MIAPaCa-2 (pancreas); experiment: In vitro cytotoxic activity assay (MTT), MIAPaCa-2; assay type: cell-based; details: Homo sapiens, MIA PaCa-2; MIAPaCa-2 (pancreas) cells, exposed for 96 hours; read-out: Cytotoxicity activity IC50 (50% inhibition of cell proliferation)
Method: as §1

[4] = test system: HCT116 (colon); experiment: In vitro cytotoxic activity assay (MTT), HCT116; assay type: cell-based; details: Homo sapiens, HCT-116; HCT116 (colon) cells, exposed for 96 hours; read-out: Cytotoxicity activity IC50 (50% inhibition of cell proliferation)
Method: as §1

[5] = test system: HL60 (leukemia); experiment: In vitro cytotoxic activity assay (MTT), HL60; assay type: cell-based; details: Homo sapiens, HL-60; HL60 (leukemia) cells, exposed for 96 hours; read-out: Cytotoxicity activity IC50 (50% inhibition of cell proliferation)
Method: as §1

[6] = biological target: T1, recombinant human CK2 (RRββ-holoenzyme) (Homo sapiens, UniProt P68400); experiment: CK2 Kinase Assay (radiometric, [γ-33P] ATP); assay type: biochemical; details: final ATP concentration 15 μM, 10 min at 30° C., eight concentrations; read-out: protein kinase CK2 activity IC50
T1 construct: purchased Millipore
Method: CK2 Kinase Assay was conducted using the protocol as described in Pierre F. et al; J. Med. Chem. 2011, 54, 635-654. The tested compounds in aqueous solution were added at a volume of 10 μL to a reaction mixture comprising 10 μL of assay dilution buffer (ADB; 20 mM MOPS, pH 7.2, 25 mM β-glycerol phosphate, 5 mM EGTA, 1 mM sodium orthovanadate, and 1 mM dithiothreitol), 10 μL of substrate peptide (RRRDDDSDDD, dissolved in ADB at a concentration of 1 mM), 10 μL of recombinant human CK2 (RRββ-holoenzyme, 25 ng dissolved in ADB; Millipore). Reactions were initiated by the addition of 10 μL of ATP solution (90% 75 mM MgCl2, 75 μM ATP (final ATP concentration:15 μM) dissolved in ADB; 10% [γ-33P] ATP (stock 1 mCi/100 μL; 3000 Ci/mmol (Perkin-Elmer) and maintained for 10 min at 30° C. The reactions were quenched with 100 μL of 0.75% phosphoric acid and then transferred to and filtered through a phosphor cellulose filter plate (Millipore). After washing each well five times with 0.75% phosphoric acid, the plate was dried under vacuum for 5 min and, following the addition of 15 μL of scintillation fluid to each well, the residual radioactivity was measured using a Wallac luminescence counter. The IC50 values were derived from eight concentrations of test inhibitors.

[7] = test system: A375 (melanoma); experiment: In vitro cytotoxic activity assay (MTT), A375; assay type: cell-based; details: Homo sapiens, A-375; A375 (melanoma) cells, exposed for 96 hours; read-out: Cytotoxicity activity IC50 (50% inhibition of cell proliferation)
Method: as §1

[8] = test system: H1299 (lung); experiment: In vitro cytotoxic activity assay (MTT), H1299; assay type: cell-based; details: Homo sapiens, NCI-H1299; H1299 (lung) cells, exposed for 96 hours; read-out: Cytotoxicity activity IC50 (50% inhibition of cell proliferation)
Method: as §1

[9] = test system: MDA-MB-231 (breast); experiment: In vitro cytotoxic activity assay (MTT), MDA-MB-231; assay type: cell-based; details: Homo sapiens; MDA-MB-231 (breast) cells, exposed for 96 hours; read-out: Cytotoxicity activity IC50 (50% inhibition of cell proliferation)
Method: as §1

T1 sequence (P68400 whole entry): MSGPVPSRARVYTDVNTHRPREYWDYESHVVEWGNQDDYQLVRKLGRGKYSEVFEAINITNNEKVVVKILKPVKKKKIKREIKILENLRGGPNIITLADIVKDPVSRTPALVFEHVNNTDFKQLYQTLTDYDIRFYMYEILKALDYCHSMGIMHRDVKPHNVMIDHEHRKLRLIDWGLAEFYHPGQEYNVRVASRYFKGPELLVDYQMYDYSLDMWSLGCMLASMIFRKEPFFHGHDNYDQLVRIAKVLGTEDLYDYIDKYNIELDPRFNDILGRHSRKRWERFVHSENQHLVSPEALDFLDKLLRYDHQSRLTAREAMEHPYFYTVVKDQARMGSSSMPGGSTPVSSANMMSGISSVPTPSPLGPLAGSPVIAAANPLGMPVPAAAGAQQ
T1 sequence (P67870 whole entry partner): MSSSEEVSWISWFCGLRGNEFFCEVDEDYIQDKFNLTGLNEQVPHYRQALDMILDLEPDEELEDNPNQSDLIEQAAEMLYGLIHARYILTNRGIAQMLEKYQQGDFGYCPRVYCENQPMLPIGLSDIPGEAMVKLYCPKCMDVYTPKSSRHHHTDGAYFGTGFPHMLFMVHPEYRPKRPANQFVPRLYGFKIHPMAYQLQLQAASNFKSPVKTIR

## O=C1Nc2c(c(Nc3cccc(Cl)c3)nc3cc(C(=O)O)ccc23)C1=O [Compound (1), 4-((3-chlorophenyl)amino)-2,3-dioxo-2,3-dihydro-1H-pyrrolo[3,2-c]quinoline-7-carboxylic acid]
[1]
  IC50: 5200 nM
[2]
  IC50: 1300 nM
[3]
  IC50: 900 nM
[4]
  IC50: 1600 nM
[5]
  IC50: 3600 nM
[6]
  IC50: 22 nM
[7]
  IC50: 3200 nM
[8]
  IC50: 1900 nM
[9]
  IC50: 4100 nM
